From the supplement of paper PMC10307832

Tests used:
Assay in all cases: relative viability (nuclei count vs DMSO), 5 days (fraction); higher = more cells survive
[1] = compound: CN(C)C(=N)NC(=N)N [Metformin] + CS(=O)(=O)CCNCc1ccc(-c2ccc3ncnc(Nc4ccc(OCc5cccc(F)c5)c(Cl)c4)c3c2)o1 [Lapatinib] (partner 2 µM)
Procedure, shortened: (§1)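 A single step with final 0.05% Triton X-100, 1% formaldehyde and 1 ug/ml Hoechst fixed the cells and stained nuclei 5 days after treatment. Lung cancer cell lines in 1536-well plates had been treated by pin tool the day after seeding with one drug alone or a fixed anchor-drug dose plus five library-drug doses (not always all listed) in √10 steps, and nuclei were counted on 4× images. Relative viability is the ratio of nuclei in treated wells to nuclei in vehicle wells, taken as the median of duplicate plates.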

[2] = compound: CN(C)C(=N)NC(=N)N [Metformin] + Cc1nc(Nc2ncc(C(=O)Nc3c(C)cccc3Cl)s2)cc(N2CCN(CCO)CC2)n1 [Dasatinib] (partner 0.075 µM)
Procedure, shortened: as §1

[3] = compound: N#CC1(c2ccc(NC(=O)c3cccnc3NCc3ccncc3)cc2)CCCC1 [Apatinib] + C[C@@H](Oc1cc(-c2cnn(C3CCNCC3)c2)cnc1N)c1c(Cl)ccc(F)c1Cl [Crizotinib] (partner 1 µM)
Procedure, shortened: as §1

[4] = compound: N#CC1(c2ccc(NC(=O)c3cccnc3NCc3ccncc3)cc2)CCCC1 [Apatinib] + O=C(c1cc(Cc2n[nH]c(=O)c3ccccc23)ccc1F)N1CCN(C(=O)C2CC2)CC1 [Olaparib] (partner 8 µM)
Procedure, shortened: as §1

| Cell Line | relative viability ([1]; first compound 10 µM) | relative viability ([1]; first compound 31.62 µM) | relative viability ([1]; first compound 100 µM) | relative viability ([1]; first compound 316.23 µM) | relative viability ([1]; first compound 1000 µM) | relative viability ([2]; first compound 31.62 µM) | relative viability ([2]; first compound 100 µM) | relative viability ([2]; first compound 316.23 µM) | relative viability ([2]; first compound 1000 µM) | relative viability ([3]; first compound 0.08 µM) | relative viability ([3]; first compound 0.253 µM) | relative viability ([3]; first compound 0.8 µM) | relative viability ([3]; first compound 2.53 µM) | relative viability ([3]; first compound 8 µM) | relative viability ([4]; first compound 0.08 µM) | relative viability ([4]; first compound 0.253 µM) | relative viability ([4]; first compound 0.8 µM) | relative viability ([4]; first compound 2.53 µM) | relative viability ([4]; first compound 8 µM) | relative viability ([2]; first compound 10 µM) |
| --- | --- | --- | --- | --- | --- | --- | --- | --- | --- | --- | --- | --- | --- | --- | --- | --- | --- | --- | --- | --- |
| NCI-H2087 | 0.597 | 0.902 | 1.02 | 1.06 | 0.895 | 0.933 | 0.891 | 0.676 | 0.693 | 0.89 | 0.799 | 0.741 | 0.614 | 0.7 | 0.633 | 0.653 | 0.541 | 0.645 | 0.493 |  |
| NCI-H2126 | 0.678 | 0.774 | 0.771 | 0.787 | 0.749 | 0.557 | 0.556 | 0.372 | 0.337 | 1.03 | 0.945 | 1.07 | 0.957 | 0.894 | 0.973 | 0.861 | 0.88 | 0.845 | 0.904 | 0.548 |
| NCI-H2170 | 0.273 | 0.247 | 0.302 | 0.288 | 0.288 | 0.625 | 0.619 | 0.664 | 0.634 | 1.23 | 1.22 | 1.11 | 1.12 | 1.07 | 0.617 | 0.623 | 0.638 | 0.49 | 0.485 | 0.514 |
| NCI-H2228 | 1.46 | 1.25 |  | 0.974 | 1.24 | 0.576 | 0.438 | 0.458 | 0.55 | 0.542 | 0.418 | 0.506 | 0.42 | 0.262 | 0.837 | 0.754 | 0.456 | 0.58 | 0.323 | 0.519 |
| NCI-H2347 | 0.582 | 0.881 | 1.04 | 0.832 | 1 | 0.369 |  | 0.307 | 0.354 | 0.795 | 0.751 | 0.772 | 0.578 | 0.645 | 0.634 | 0.485 | 0.583 | 0.517 | 0.493 | 0.336 |
| NCI-H2405 | 0.932 | 1.13 | 1.01 | 1.07 | 0.556 | 0.265 | 0.253 | 0.272 | 0.255 | 0.936 | 0.863 | 0.883 | 0.762 | 0.811 | 0.916 | 0.883 | 0.837 | 0.821 | 0.752 | 0.272 |
| NCI-H3122 | 0.871 | 0.872 | 0.89 | 0.846 | 0.819 | 0.879 | 0.897 | 0.666 | 0.896 | 0.3 | 0.246 | 0.256 | 0.27 | 0.328 | 0.609 | 0.655 | 0.525 | 0.613 | 0.597 | 0.509 |
| PC-3 [JPC-3] | 0.453 | 0.46 | 0.441 | 0.435 | 0.447 | 0.889 | 0.979 | 0.886 | 0.986 | 1.02 | 0.962 | 0.922 | 0.933 | 0.901 |  | 1.12 | 0.983 | 1.1 | 1.06 | 0.944 |
| PC-14 | 0.432 | 0.438 | 0.37 | 0.36 | 0.372 | 0.285 | 0.253 | 0.235 | 0.233 | 0.925 | 0.99 | 0.841 | 0.863 | 0.915 | 0.278 | 0.28 | 0.222 | 0.213 | 0.252 | 0.337 |
| RERF-LC-KJ | 0.685 | 0.777 | 0.777 | 0.775 | 0.915 | 0.709 | 0.613 | 0.462 | 0.534 | 0.776 | 0.834 | 0.778 | 0.704 | 0.629 | 0.919 | 0.801 | 0.903 | 0.782 | 0.715 | 0.689 |
| SK-LU-1 | 0.632 | 0.88 | 0.844 | 0.694 | 0.812 | 0.192 | 0.174 | 0.17 | 0.177 | 1.04 | 0.806 | 0.761 | 0.785 | 0.566 | 0.503 | 0.453 | 0.435 | 0.549 | 0.436 | 0.171 |
| SK-MES-1 | 0.452 | 0.488 | 0.516 | 0.463 | 0.485 | 0.41 | 0.338 | 0.314 | 0.321 | 0.983 | 0.937 | 0.897 | 0.955 | 0.796 | 0.858 | 0.665 | 0.627 | 0.592 | 0.411 | 0.252 |
| SW 1573 | 1.1 | 1.09 | 1.09 | 1.03 | 1.18 | 0.833 | 0.708 | 0.425 | 0.551 | 0.946 | 0.867 | 0.748 | 0.74 | 0.58 | 0.586 | 0.506 | 0.463 | 0.325 | 0.357 | 0.589 |
| UMC-11 | 0.899 | 1.04 | 1.1 | 0.973 | 1.17 | 0.482 | 0.546 | 0.447 | 0.45 | 0.619 | 0.57 | 0.617 | 0.519 | 0.493 | 1.14 | 0.411 | 0.397 | 0.328 | 0.365 | 0.528 |
